Experimental data from patent US8303907B2, “Biosensors, and method and kits for using same” (priority 2002, dated 2012).
≈ marks a conversion by molar mass, not a printed value. Like-named read-outs stand apart in the source and are kept apart here.

How the values were obtained:
[1] = tested on: Physically immobilised thylakoids; conditions: physically immobilised thylakoids (electrochemistry), Laberge (2000); cited from earlier work
PSII [2] = molecular target: T1, PSII (Thermosynechococcus vestitus, UniProt P0A444); conditions: PSII Clark electrode (amperometry), Koblizek (2002); cited from earlier work
[3] = tested on: stabilised thylakoid membranes; assay: Inhibition of photosynthetic efficiency of stabilised thylakoid membranes measured by fluorescence (F2-F1)/F2; assay type: biochemical, spinach
From the text: In a specific embodiment, a fluorometer continuously illuminates weakly the photosynthetic biological material with a light emitting diode (LED) emitting light at a wavelength of 475 or at 660 nm. Better results were obtained with the 475 nm wavelength. In order to obtain a higher sensitivity for measuring the photosynthetic response to toxic molecules, the intensity of the low excitation light was adjusted so as to obtain a F1 fluorescence level slightly higher than F0.
Fluorescence measured 2 sec after turning on one LED is F1. Three additional LEDs are then turned on so as to induce actinic illumination F2. Dispersion of LEDs is illustrated in FIG. 1. Light beams are oriented so as to form together a point of convergence precisely at the level where the photodiode is read. After a specific time, selected according to the nature of the thylakoid membranes used (eg. source of thylakoids, etc.) (Table 1), of the background noise and of the level of sensitivity sought, the F2 fluorescence is measured. To determine F1 and F2, the fluorometer measures wavelengths higher than 650 nm when the illumination is at 475 nm, and higher than 700 nm when illumination is at 660 nm.
The photosynthetic efficiency is determined with the following formula (F2−F1)/F2. Preferably, the photosynthetic efficiency of the stabilised thylakoids is 0.8±0.1. Any molecule affecting the photosystems modifies either F1 or F2 which modification necessarily disrupts (increases or decreases) the photosynthetic efficiency. The inhibition curve of a particular molecule is determined by calculating the activity of the photosystems in the absence of the molecule and in the presence of the molecule and comparing both efficiency as follows as described in Conrad 1993:
Without inhibitor (wi): efficiency(wi)=(F2(wi)−F1(wi))/F2(wi) With inhibitor: Relative photosynthetic efficiency(sample)=(F2(sample)−F1(sample))/F2(wi) Percentage efficiency: efficiency (%)=(efficiency(sample)×100)/efficiency(wi) Percentage inhibition: Inhibition (%)=100−efficiency (%)
The individual test tubes (100 μL lyophilised thylakoid membranes) were resuspended in 2 mL of water or tested samples. The concentrated batch of test tubes was resuspended in water, in Buffer 1 (HEPES-NaOH 50 mM pH 7.5 buffer containing sucrose 330 mM, MgCl2 20 mM, NH4Cl 10 mM, PEG 4000 4% (p/v)); or in Buffer 2 (phosphate buffer 0.1 M pH 6.5 containing sucrose 330 mM, NH4Cl 10 mM, MgCl2 20 mM, EDTA 10 mM, PEG 4000 4% (p/v)). A combination of buffered solutions 1 and 2 may also be used. […] These different buffers rs produce different results in the detection sensitivity (see Table 3 above). The final volume obtained depends on the quantity of lyophilised membranes used (2.5 mL for 25 tests, 5 mL for 50 tests).
Before use, the tubes containing stabilised thylakoid membranes were retrieved from storage. If they were stored in the freezer or the refrigerator, they were tempered 30 minutes at room temperature and in the dark. Two milliliters of fluid samples and the required volume of MgCl2 mother solution to get 0-10 mM MgCl2 (depending on tested samples) were added to 100 μL of the thylakoids membranes formulation at a concentration of 5 μg/mL. The tubes are then shook by inversion for 2 min. […]

PSII [4] = molecular target: T1, PSII; conditions: cited from earlier work
[5] = tested on: Chemically immobilised thylakoids; conditions: chemically immobilised thylakoids (electrochemistry), Laberge (1999); cited from earlier work
algaes native [6] = conditions: algaes native (fluorescence), Conrad (1993); cited from earlier work
algaes native [7] = conditions: algaes native (fluorescence), Jay (1997); cited from earlier work
[8] = Buffer 1 + 5 mM MgCl2 (in cuvette)
[9] = membranes resuspended in Buffer 1
[10] = membranes resuspended in Buffer 2
[11] = stabilised thylakoid membranes of the present invention (fluorescence)

In the case of CCNc1nc(Cl)nc(NC(C)C)n1 [Atrazine], the IC50 [1] is given as 280 µg/mL (≈ 1300 µM), the IC50 (PSII [2]) is given as 301 µM and the Threshold (PSII [2]) is given as 0.0004 mg/L. For the same molecule, the “Inhibition (%)” value ([3]; Biological apple juice, atrazine 0.01 μg/mL) was 23%, the “Inhibition (%)” value ([3]; Biological apple juice, atrazine 0.1 μg/mL) was 61% and the “Inhibition (%)” value ([3]; Biological apple juice, atrazine 4 μg/mL) was 71%. For the same molecule, the IC50 [3, 8] was 0.04 µg/mL, the Threshold [3, 8] was 0.001 mg/L and the “Inhibition (%)” value ([3]; Commercial apple juice (clear), pH 7, gravimetric filtration, atrazine 0.01 μg/mL) was 15%. For the same molecule, the “Inhibition (%)” value ([3]; Commercial apple juice (clear), pH 7, gravimetric filtration, atrazine 0.1 μg/mL) was 60%, the “Inhibition (%)” value ([3]; Commercial apple juice (clear), pH 7, gravimetric filtration, atrazine 4 μg/mL) was 74% and the “Inhibition (%)” value ([3]; Commercial apple juice (with pulp), pH 7, gravimetric filtration, atrazine 0.01 μg/mL) was 23%. For the same molecule, the “Inhibition (%)” value ([3]; Commercial apple juice (with pulp), pH 7, gravimetric filtration, atrazine 0.1 μg/mL) was 58%, the “Inhibition (%)” value ([3]; Commercial apple juice (with pulp), pH 7, gravimetric filtration, atrazine 4 μg/mL) was 65% and the “Inhibition (%)” value ([3]; Commercial apple juice, pH adjusted at 7, atrazine 0.01 μg/mL) was 11%. For the same molecule, the “Inhibition (%)” value ([3]; Commercial apple juice, pH adjusted at 7, atrazine 0.1 μg/mL) was 61%, the “Inhibition (%)” value ([3]; Commercial apple juice, pH adjusted at 7, atrazine 4 μg/mL) was 84% and the “Inhibition (%)” value ([3]; Water, atrazine 0.01 μg/mL) was 16%. The “Inhibition (%)” value ([3]; Water, atrazine 0.1 μg/mL) was 60%, the “Inhibition (%)” value ([3]; Water, atrazine 4 μg/mL) was 80% and the “% effect” value ([3]; atrazine 0.001 mg/L) was 4.2%. The “% effect” value ([3]; atrazine 0.004 mg/L) was 14.9%, the “% effect” value ([3]; atrazine 0.04 mg/L) was 55.3% and the “% effect” value ([3]; atrazine 0.1 mg/L) was 69.4%. For the same molecule, the IC50 [3, 9] was 0.13 µg/mL, the Threshold [3, 9] was 0.002 mg/L and the IC50 [3, 10] was 0.33 µg/mL. It also gave a Threshold [3, 10] of 0.002 mg/L, a calculated inhibition ([3]; sample with initial concentration of 4 mg/L of atrazine) of 64.8% and a detection threshold ([3]; some of the thylakoid membranes preparations) of 1 ppb. For the same molecule, the IC50 [3, 11] was 40 µg/mL, the Threshold [3, 11] was 0.001 mg/L and the IC50 (PSII [4]) was 88.1 µM. For the same molecule, the IC50 [5] was 330 µg/mL (≈ 1530 µM), the Threshold [5] was 0.01 to 0.05 mg/L and the IC50 (algaes native [6]) was 150 µg/mL (≈ 695 µM). For the same molecule, the IC50 (algaes native [7]) was 62 µg/mL (≈ 287 µM) and the Threshold (algaes native [7]) was 0.009 mg/L.
